Experimental data reported in US20150253330A1, “PRE-SELECTION OF SUBJECTS FOR THERAPEUTIC TREATMENT WITH AN HSP90 INHIBITOR BASED ON HYPOXIC STATUS” (Synta Pharmaceuticals Corp., priority 2012, published 2015).
Entries after “also recorded” stand apart in the source; their conditions may differ.

What was measured:
[1] = Phase 2 study in solid tumors, twice-weekly infusion (safety, PK, response); format: in vivo, human; conditions: human, plasma, intravenous; patients, 1 hr infusion; read-out: Mean terminal half-life
Description: (§1) Patients with solid tumors who had exhausted standard treatment options received ganetespib as a 1 hr infusion twice-weekly for 3 weeks (weeks) of a 28 day cycle until disease progression. Serial PK and pharmacodynamic samples were obtained during cycle 1. Safety assessments included frequency and grade of adverse events (AEs), laboratory parameters and ECG changes.

[2] = system: solid tumors; assay: as above; format: in vivo, human
Description: as §1

[3] = system: MDA-MB-231; assay: 72 hr viability by CTG, breast cancer cell line; format: cell-based
Experimental: (§2) Breast cancer is a heterogeneous disease historically broken down into 4 subtypes. Various compounds were tested for their effects in cell viability assays using various breast cancer cell lines. Cellular viability was assessed using the CellTiter-Glo® Luminescent Cell Viability Assay (Promega, Madison, Wis., USA) according to the manufacturer's protocol. KRAS mutant NSCLC cell lines were seeded into 96-well plates based on optimal growth rates determined empirically for each line. Twenty-four hours after plating, cells were dosed with graded concentrations of ganetespib for 72 h. CellTiter-Glo® was added (50% v/v) to the cells, and the plates incubated for 10 min prior to luminescent detection in a SpectraMax® Plus 384 microplate reader (Molecular Devices, Sunnyvale, Calif., USA). Data were normalized to percent of control and IC50 values used to determine the sensitivity of each line. For the comparative analysis study with MEK and PI3K/mTOR inhibitors, A549, H2009, Calu-1, and H358 cells were treated with graded concentrations of ganetespib, AZD6244, or BEZ235 for 72 h and cell viability measured as above.
(§3) Breast cancer, cell lines, marker status, and IC50 in response to ganetespib at 72 hr (viability by CTG).
Basal breast cancer is a subtype believed to be more stem like and less differentiated than luminal breast cancer, and therefore more aggressive with limited treatment options. […]

[4] = system: BT-474; assay: 72 hr viability by CTG, breast cancer cell line; format: cell-based; conditions: Homo sapiens, BT-474, Luminal, ER+ PR+ HER2+, viability by CTG (2D)
Experimental: as §2, §3

[5] = system: MCF7; assay: 72 hr viability by CTG, breast cancer cell line; format: cell-based; conditions: Homo sapiens, MCF7, Luminal, ER+ PR+
Experimental: as §2, §3

[6] = system: MDA-MB-468; assay: 72 hr viability by CTG, breast cancer cell line; format: cell-based; conditions: Homo sapiens, MDA-MB-468, Basal A
Experimental: as §2, §3

[7] = system: OCUB-M; assay: 72 hr viability by CTG, breast cancer cell line; format: cell-based; conditions: Basal
Experimental: as §2, §3

[8] = system: SK-BR-3; assay: 72 hr viability by CTG, breast cancer cell line; format: cell-based; conditions: Homo sapiens, SK-BR-3, Luminal, HER2+
Experimental: as §2, §3

[9] = system: SUM149 inflammatory breast cancer (IBC) cells; assay: 24 hr viability assay, inflammatory breast cancer cells; format: cell-based; conditions: 24 hr after exposure, FIG. 2
Experimental: Ganetespib was assayed in inflammatory breast cancer (IBC), a rare but aggressive form of breast cancer distinct from the subtypes presented above.

[10] = system: A549 NSCLC cells; assay: Mouse xenograft tumor model, ganetespib and BEZ235 (Example 9); format: in vivo, mice; conditions: ganetespib 50 mg/kg weekly i.v.; BEZ235 10 mg/kg 5 times a week p.o.; particularly at later time points; FIG. 8
Description: Female immunodeficient CD-1 (nude) mice (Charles River Laboratories, Wilmington, Mass.) were maintained in a pathogen-free environment, and all in vivo procedures were approved by the Synta Pharmaceuticals Corp. Institutional Animal Care and Use Committee. A549 NSCLC cells (7.5×10^6) were subcutaneously implanted into the animals. Mice bearing established tumors (100-200 mm^3) were randomized into treatment groups of 8 and i.v. dosed via the tail vein with either vehicle, ganetespib formulated in 10/18 DRD (10% DMSO, 18% Cremophor RH 40, 3.6% dextrose, 68.4% water) or p.o. dosed with BEZ235 formulated in PEG300/NMP (90% PEG300, 10% N-Methylpyrrolidone). Animals were treated with ganetespib at 50 mg/kg weekly or BEZ235 at 10 mg/kg 5 times a week, either alone or in combination. Tumor growth inhibition was determined as described previously. See Proia et al, PLoS One. 2011; 6(4):e18552.

[11] = system: HGC-27; assay: 72 hr viability by Syto60, gastric cell line; format: cell-based; conditions: Homo sapiens, Syto60 (lower), read-out: ganetespib IC50
[12] = system: ECC12; assay: 72 hr viability by Syto60, gastric cell line; format: cell-based; conditions: Homo sapiens, Syto60 (lower), read-out: ganetespib IC50
[13] = system: SNU-5; assay: 72 hr viability by Syto60, gastric cell line; format: cell-based; conditions: Homo sapiens, Syto60 (lower), read-out: ganetespib IC50
[14] = system: Hsp90 client proteins; assay: Western blot of Hsp90 client proteins in MKN45 cells; format: cell-based
[15] = system: 15 KRAS mutant NSCLC cell lines; assay: Viability of KRAS mutant NSCLC cell line panel, 72 h, CellTiter-Glo; format: cell-based; conditions: across 15 KRAS mutant NSCLC cell lines in vitro
Experimental: as §2

[16] = system: A549 cells; assay: Combinatorial viability analysis, 72 hours; format: cell-based
Experimental: (§4) For combinatorial analysis, cells were seeded in 96-well plates at a predetermined, optimum growth density for 24 h prior to the addition of drug or vehicle to the culture medium. Drug combinations were applied at a non-constant ratio over a range of concentrations for 72 or 96 hours. […] Cell viability was assessed by either AlamarBlue® (Invitrogen, Carlsbad, Calif.) or CellTiter-Glo® assays and normalized to vehicle controls. For each combination study, the level of growth inhibition (fraction affected) is plotted relative to vehicle control. Data are presented as one relevant combination point and the corresponding single agent data for each cell line tested.

[17] = system: H2009 cells; assay: Combinatorial viability analysis, 72 hours; format: cell-based
Experimental: as §4

[18] = system: H2030 cells; assay: Combinatorial viability analysis, 72 hours; format: cell-based
Experimental: as §4

[19] = system: H358 cells; assay: Combinatorial viability analysis, 72 hours; format: cell-based
Experimental: as §4

[20] = ganetespib combined with pemetrexed
[21] = ganetespib in combination with gemcitabine
[22] = low nanomolar ganetespib combined with camptothecin

SMILES: CC(C)c1cc(-c2nnc(O)n2-c2ccc3c(ccn3C)c2)c(O)cc1O [ganetespib]
- half-life [1]: 600 to 840 min
- NSCLC patients with durable SD, with tumor shrinkage ([2]; 6 months of treatment): 2 patients
- DLTs (elevated transaminases) ([2]; in the 10 and 144 mg/m^2 cohorts): Two
- Volume of distribution ([2]; patients): greater than total body water
- PK linearity ([2]; patients, doses from 2-144 mg/m^2): linear PK
- Accumulation in plasma ([2]; patients, twice-weekly dosing): no accumulation in plasma
- Tolerability ([2]; twice-weekly administration): absence of severe liver, ocular, cardiac and renal toxicity; also recorded: well-tolerated
- Response by RECIST in a patient with metastatic melanoma ([2]; twice-weekly dosing): confirmed durable PR
- AEs reported in ≧20% of patients ([2]; twice-weekly, majority mild to moderate): fatigue, diarrhea, nausea, anemia, abdominal pain, constipation, anorexia, vomiting, and headache
- Anticancer activity in the basal line MDA-MB-231 ([3]; 72 hr viability assay, FIG. 1): highly potent, killing all the cells
- IC50 ([3]; Homo sapiens, MDA-MB-231, Basal B, 72 hr, viability by CTG): 24 nM
- IC50 [4]: 13 nM
- IC50 [5]: 25 nM
- IC50 [6]: 27 nM
- IC50 [7]: 39 nM
- IC50 [8]: 10 nM
- Anticancer activity against SUM149 cells [9]: considerable anticancer activity
- Average tumor volume as compared to vehicle [10]: significantly reduced
- IC50 [11]: 11 nM
- IC50 [12]: 12 nM
- IC50 [13]: 31 nM
- Effect on Hsp90 client proteins by western blot [14]: complete degradation of MET and IGF-IR
- IC50 [15]: 24 nM
- Increase in cytotoxicity [16, 20]: marginal increase in cytotoxicity
- Increased cell death [16, 21]: 1.4 fold
- Enhanced cell death [17, 20]: 1.5 fold
- Increased cell death [17, 21]: 2.3 fold
- Fold increase in cytotoxicity [17, 22]: 1.5 fold
- Enhanced cell death [18, 20]: 2.4 fold
- Fold increase in cytotoxicity [18, 22]: 3.4 fold
- Increase in cytotoxicity [19, 20]: marginal increase in cytotoxicity
- Benefit of combination [19, 21]: no benefit
- Fold increase in cytotoxicity [19, 22]: 1.4 fold
